Our source for the logD values is ChEMBL document CHEMBL3301361, “Experimental in vitro DMPK and physicochemical data on a set of publicly disclosed compounds”.

Structures are written as SMILES.

A short description of the data set: physchem. Particulars: octan-1-ol/water, pH 7.4, LogD7.4.
One may read the logD as lipophilicity at a set pH, counting ionised and neutral species. High values mean a more lipophilic compound, low ones a more hydrophilic compound. The compound `COc1cccc(C(COCc2cc(C(F)(F)F)cc(C(F)(F)F)c2)N2CCNCC2)c1` (centres undefined) showed a logD of 3.1.

With `CCN1CCN(CC(=O)Nc2ccc(-c3cccc4c(=O)cc(N5CCOCC5)oc34)c3sc4ccccc4c23)CC1`, the logD came to 3.05.

In turn, `Fc1ccc(C(COCc2cc(C(F)(F)F)cc(C(F)(F)F)c2)N2CCNCC2)cc1` (centres undefined) showed a log distribution coefficient (logD) of 3.

The compound `CC(C)Cn1c(=O)[nH]c(=O)c2c(C(=O)N3CCC3)c(Cc3ccccc3C(F)(F)F)sc21` gave a logD of 3.

On to `CCCc1c(OCCCOc2ccc3c(=O)cc(C(=O)O)oc3c2CCC)ccc(C(C)=O)c1O`, for which the logD was found to be 3.

On to `CNc1ccc2ncc(-c3cccc(O)c3)n2n1`, for which the logD worked out at 2.99.

`COc1c(C#N)cc2ccccc2c1C(=O)N(C)C[C@@H](CCN1CCC(N2CCCNC2=O)CC1)c1ccc(Cl)c(Cl)c1` displayed a logD of 3.

`O=C(COCc1cscn1)N1CCN(c2ccc(Cl)cc2Cl)CC1` yielded a logD of 3.07.

In turn, `Cc1cc(NC(=O)Nc2ccc(Cl)cc2)n(C)n1` showed a logD of 2.96.

With `CCN(C(=O)Nc1ccccc1)c1ccccc1`, the logD was determined as 3.1.

Consider `O=C(Cc1ccccn1)c1ccc(Cl)cc1`, for which the logD stood at 2.96.

Compound `COc1cnc(-c2ccccn2)nc1Oc1ccc(F)cc1F` yielded a logD of 3.1.

Take `CC(O)(C(=O)Nc1ccc(S(=O)(=O)c2ccccc2)cc1)C(F)(F)F` (centres undefined): the logD was determined as 2.98.

For the compound `CCOc1ccc(-c2cnc3n2CCCCC3)cc1`, the logD is 3.01.

For `Nc1nc2ccc(-c3cccc(O)c3)cc2s1`, the logD was 3.1.

Turning to `CCCc1c(OCc2cccc(NC(=O)Cc3ccccc3C(=O)O)c2)ccc(C(C)=O)c1O`, the log distribution coefficient (logD) was found to be 2.95.

For `O=C1CCOc2nc(C#CC3CCCC3)ccc21`, the pH-dependent lipophilicity (logD) turned out to be 3.

Compound `CC[C@H](NC(=O)c1c([S+](C)[O-])c(-c2ccccc2)nc2cc(Cl)ccc12)c1ccccc1` (some centres undefined) registered a logD of 3.07.

`O=C(NCc1ccccc1)c1cccnc1Oc1ccccc1` displayed a logD of 3.

`COc1cccc(Nc2ncnc3cc(OC)c(OC)cc23)c1` had a pH-dependent lipophilicity (logD) of 3.1.

Consider `C#CC(C)(C)NC(=O)c1sccc1Oc1ccc(F)cc1[N+](=O)[O-]`, for which the logD was determined as 3.

With `FC(F)(F)c1nnc2ccc(N3CCCCC3)nn12`, the log distribution coefficient (logD) turned out to be 3.

`CSc1ccc(-c2nc(-c3ccc(F)cc3)c(-c3ccncc3)[nH]2)cc1` came in with a logD of 2.97.

The compound `COc1cc(N2CCN(C(C)=O)CC2)ccc1Nc1nccc(-c2cnc3ccccn23)n1` showed a logD of 3.

As for `CCOc1ccc(Oc2ccc(S(=O)(=O)NC(=O)c3cccc(-c4ccc(Cl)c(Cl)c4)c3)cc2)cc1`, the logD amounted to 2.94.

`O=C(Cc1ccccc1)c1ccc(O)cc1O` returned a logD of 3.09.

Turning to `CONC(=O)c1cnc(N2CCC(NC(=O)c3[nH]c(C)c(Cl)c3Cl)CC2)s1`, the logD came out at 3.1.

`CC(=O)N[C@@H]1CC2(CCN(Cc3ccc4[nH]c5ccccc5c4c3)CC2)c2ccccc21`: the logD was 2.96.

As for `CNc1c(Br)cnc2nc(-c3ccc(OCCCN4CCOCC4)cc3)[nH]c12`, the logD was 2.96.

The compound `Nc1nc2nc(SCc3ccccc3)nc(N)c2s1` came in with a logD of 3.1.

For the compound `Cc1ccc(-c2ncc[nH]2)cc1NC(=O)c1ccc(OCc2ccccn2)cc1`, the logD amounted to 3.01.

In turn, `Cc1nc(-c2ccc(C)c(NC(=O)c3ccc(OCc4ccccn4)cc3)c2)c[nH]1` displayed a logD of 2.97.

The compound `C[C@@H]1CN(C(=O)OC(C)(C)C)CCN1c1ncc(OCc2ccc(S(C)(=O)=O)cn2)cn1` had a logD of 3.

Consider `C[C@@H]1CN(C(=O)OCC(F)(F)F)CCN1c1ncc(OCc2ccncc2C#N)cn1`, for which the logD was 3.

Regarding `Cn1cc(C#N)cc1-c1c2c(=O)n(CCO)c(=O)n(CC3CC3)c2nn1Cc1ccnc2ccc(Cl)cc12`, the logD was determined as 3.

Take `COc1cc(OC2CCN(C)CC2)c2c(Nc3c(Cl)ccc4c3OCO4)ncnc2c1`: the logD worked out at 2.98.

Compound `Cc1cn(C2CCCN(Cc3cccc(Oc4ccccc4)c3)C2)c(=O)[nH]c1=O` (centres undefined) gave a logD of 3.04.

Compound `Nc1ncccc1NCc1cccc(-c2cccnc2)c1` had a logD of 3.

`Cc1cc(Cl)ccc1OC1CCN(C[C@H](O)CNC(=O)c2c[nH]c(=O)c3c(F)cccc23)CC1`: the logD is 3.

For `N#Cc1cccc(OC[C@@H](O)CNC2CCN(Cc3ccc(Cl)c(Cl)c3)CC2)c1`, the logD stood at 3.09.

For `COc1cc2ncnc(Nc3ccc(F)cc3)c2cc1OC`, the logD worked out at 3.1.

As for `COCCC(NC(=O)C1(N)CCN(c2ncnc3[nH]ccc23)CC1)c1ccc(Cl)cc1` (centres undefined), the logD is 2.95.

The compound `O=C(NC1Cc2ccccc2N(CCO)C1=O)c1cc2cc(Cl)sc2[nH]1` (centres undefined) yielded a logD of 3.05.

`COCCOc1ccc(Nc2ncc3cc(-c4ccncc4)ccc3n2)cc1` gave a logD of 3.1.

Compound `COCCC(=O)NC(C)c1ccc(Nc2ncc3cc(-c4ccncc4)ccc3n2)cc1` (centres undefined) came in with a logD of 2.98.

Turning to `COCCC(=O)N[C@H](C)c1ccc(Nc2ncc3cc(-c4ccncc4)ccc3n2)cc1`, the logD amounted to 3.08.

In the case of `COCCC(=O)N[C@@H](C)c1ccc(Nc2ncc3cc(-c4ccncc4)ccc3n2)cc1`, the log distribution coefficient (logD) turned out to be 3.05.

Compound `C[C@@H](NC1=CC(=O)NCC1)c1ccc(Nc2ncc3cc(-c4ccncc4)ccc3n2)cc1` returned a log distribution coefficient (logD) of 3.02.

With `NS(=O)(=O)c1cccc(Nc2nccc(Nc3c(Cl)ccc4c3OCO4)n2)c1`, the logD came out at 2.97.

`COc1ccc(-c2cc(NC(=O)Cc3ccc4ccccc4c3)[nH]n2)cc1OC` showed a log distribution coefficient (logD) of 3.1.

Consider `COc1cccc([C@@H](C)NCCCc2ccccc2Cl)c1`, for which the logD was determined as 3.

As to `COc1ccc(-n2sc3ccccc3c2=O)cc1`, the logD is 3.02.

Compound `CC(=O)NC[C@H]1CN(c2ccc(N3Cc4ccncc4C3)c(F)c2)C(=O)O1` gave a logD of 3.02.

`O=C1NC(=O)c2cc(OCc3ccccc3)ccc21` displayed a logD of 3.1.

Compound `Cc1ccc(NC(=O)c2cccc(N(C)C)c2)cc1NC(=O)c1ccc(OC(C)C)cc1` gave a logD of 3.1.

`CC(C)C(NC(=O)Cn1c(-c2cccnc2)ccc(NC(=O)OCc2ccccc2)c1=O)C(=O)C(F)(F)F` (centres undefined) displayed a logD of 3.05.

For `CC(c1ccccc1)N1Cc2ccccc2C1=O` (centres undefined), the logD worked out at 3.

`CNC(=O)c1ccc(Nc2ncc(F)c(-c3cnc(C)n3C(C)C)n2)cc1`: the logD is 3.

As to `CNC(=O)c1ccc(Nc2nccc(-c3cnc(C)n3C(C)C)n2)cc1F`, the logD was found to be 2.95.

With `COc1ccc(N(C(=O)c2ccccc2)C(C)C(=O)NC2CCCC2)c(OC)c1` (centres undefined), the logD was 3.02.

Take `COc1cc2ncc(C(N)=O)c(Nc3ccc(F)cc3F)c2cc1OC`: the logD turned out to be 2.95.

`Cc1oc2cc(O)ccc2c(=O)c1-c1ccccc1` showed a logD of 2.95.

`COC(=O)CCCC(=O)Nc1ccc2c(c1)-c1ccccc1C(=O)C2=O` showed a logD of 2.96.

Consider `O=C1C(=O)c2cc(-c3ccsc3)ccc2-c2ccccc21`, for which the logD amounted to 3.1.

In turn, `O=C(CC1CCN(Cc2ccn(-c3ccc(C(F)(F)F)cc3)c2)CC1)N(CCCO)Cc1ccc(F)cc1` had a logD of 3.04.

For the compound `O=C(CC1CCN(Cc2ccn(-c3ccc(C(F)(F)F)cc3)c2)CC1)NC(c1ccc(F)cc1)c1ccc(=O)[nH]c1` (centres undefined), the logD amounted to 3.04.

In turn, `Oc1ccc(-c2ccc3cc(O)ccc3n2)cc1` registered a log distribution coefficient (logD) of 3.1.

Consider `O=c1oc2ccccc2cc1-c1ccc(O)cc1`, for which the logD stood at 3.

Compound `C=CCNS(=O)(=O)c1ccc(NC(=O)[C@@](C)(O)C(F)(F)F)c(Cl)c1` displayed a logD of 3.07.
